# Measured values from patent publication US20110166112A1, “METHOD FOR STIMULATING PLATELET PRODUCTION” (Eisai, Inc., priority 2009, published 2011).
# System: subjects with chronic ITP who completed 28 days of study treatment
# Experiment: Phase 2 6-month rollover study of E5501: effectiveness (durable, transient, overall platelet response, maintenance, steroid use, upward dose titration)
# Assay type: in vivo, human
# Details: for Decreased use of concomitant steroid medication by ≧50%, No / Decreased use of concomitant steroid medication by ≧50%, Yes / Permanently discontinued steroid use, No / Permanently discontinued steroid use, Yes: 6-month rollover, FAS subjects taking steroids at baseline; for subjects who required upward dose titration / durable response rate: 6-month treatment period; for Transient Platelet Response No, %: 'no' includes durable responders
# Protocol: This study was a multicenter, parallel-group, rollover study of E5501 in subjects with chronic ITP who were enrolled in and completed 28 days' of study treatment. All subjects who completed the previous study and otherwise met the eligibility criteria for this rollover protocol were enrolled.
# Subjects who rolled over from the previous study were treated for an additional 6 months after completing previous study.
# Initial dose: Subjects who met the efficacy response in the previous study continued to receive their previous blinded dose at entry into this study.
# Dose titration was performed in an open label fashion in 10 mg increments as follows: • Nonresponders, who received initial doses of open-label E5501 10 mg in the previous study, could have their dose increased in 10 mg increments every 14 days to a maximum of 40 mg/day in the absence of platelet response.
# Subjects were also permitted to reduce their dose of ITP-directed concomitant therapy (e.g., steroids). The overall goal of any dose modification was to maintain the subject's peripheral platelet count above 50,000/mm^3 and to decrease the need for ITP-directed concomitant medications (if applicable). During any dose modification of study drug or ITP-directed concomitant medications, platelet counts were collected every week. After platelet counts stabilized, platelet count collection reverted to a biweekly schedule.
# Assessments: Study subjects were evaluated for safety and efficacy (including platelet count) on day 1 and then biweekly while receiving treatment.
# Two primary analysis populations were used to summarize safety and effectiveness: • Safety population: all subjects who received at least 1 dose of study drug and had at least 1 post-treatment safety assessment in either the previous or this study. All safety analyses were performed using this population. • Full Analysis Set (FAS): all subjects who participated in both studies and who had at least one post-treatment effectiveness assessment in this study. All efficacy analyses were performed using this population.
# Secondary Endpoints: The secondary endpoints were markers of effectiveness, including: • 1. Changes in platelet count from baselines of the previous study and of this study by study visit; and • 2. Durable platelet response, defined as subjects who had at least 3 platelet count assessments in the last 14 weeks of the 24-week treatment period, and whose platelet count was at a response level for at least 75% of the time in the last 14 weeks during the 24-week treatment period, with no rescue medication used during the 24-week treatment period. Platelet response level was defined as ≧50,000/mm^3 for subjects whose baseline platelet count was <30,000/mm^3 in the previous study or an increase in baseline platelet count of ≧20,000/mm^3 for subjects receiving steroids whose baseline platelet count in the previous study was ≧30,000/mm^3 but <50,000/mm^3; • 3. Transient platelet response, defined as achievement of a response level for any 4 consecutive weeks during the 24-week treatment period without durable platelet response in the absence of any rescue medication; • 4. Overall platelet response (durable platelet response plus transient platelet response); • 5. Maintenance of platelet response, defined as subjects who were responders in the previous study (e.g., responders on day 28 of the previous study) who achieved a durable response in this study and had no upward dose titration of E5501 during this study; • 6. Permanent discontinuation of steroid use, defined as subjects who used steroid medication within the 2-week period before their first dose of study drug in this study, and for whom concomitant steroid medication was discontinued at least 8 weeks before the end of the treatment period; • 7. Reduction of steroid use by at least 50%. […]
# [1] = FAS, 501-CL-003 Nonresponders (N = 28)
# [2] = FAS, 501-CL-003 Responders (N = 25)
# [3] = FAS, <3 Lines of Prior Therapy, E5501 Total, N assessed 18
# [4] = FAS, <3 Lines of Prior Therapy, Non-Responders, N assessed 6
# [5] = FAS, <3 Lines of Prior Therapy, Responders, N assessed 12
# [6] = FAS, Baseline PC >15K/mm^3, E5501 Total, N assessed 38
# [7] = FAS, Baseline PC >15K/mm^3, Non-Responders, N assessed 19
compound,measurement,setting,value
"O=C(Nc1nc(-c2cc(Cl)cs2)c(N2CCN(C3CCCCC3)CC2)s1)c1cnc(N2CCC(C(=O)O)CC2)c(Cl)c1 [E5501, 1-(3-chloro-5-{[4-(4-chlorothiophen-2-yl)-5-(4-cyclohexylpiperazin-1-yl)thiazol-2-yl]carbamoyl}pyridine-2-yl)piperidine-4-carboxylic acid]","Decreased use of concomitant steroid medication by ≧50%, No",E5501 Total,11 (45.8) n (%)
same,"Decreased use of concomitant steroid medication by ≧50%, Yes",E5501 Total,13 (54.2) n (%)
same,"Permanently discontinued steroid use, No",E5501 Total,16 (66.7) n (%)
same,"Permanently discontinued steroid use, Yes",E5501 Total,8 (33.3) n (%)
same,"Decreased use of concomitant steroid medication by ≧50%, No",Nonresponders,6 (50.0) n (%)
same,"Decreased use of concomitant steroid medication by ≧50%, Yes",Nonresponders,6 (50.0) n (%)
same,"Permanently discontinued steroid use, No",Nonresponders,8 (66.7) n (%)
same,"Permanently discontinued steroid use, Yes",Nonresponders,4 (33.3) n (%)
same,"Decreased use of concomitant steroid medication by ≧50%, No",Responders,5 (41.7) n (%)
same,"Decreased use of concomitant steroid medication by ≧50%, Yes",Responders,7 (58.3) n (%)
same,"Permanently discontinued steroid use, No",Responders,8 (66.7) n (%)
same,"Permanently discontinued steroid use, Yes",Responders,4 (33.3) n (%)
same,subjects who required upward dose titration,25 responders,20%
same,subjects who required upward dose titration,28 non-responders,75%
same,durable response rate,"FAS, all subjects",52.8%
same,durable response rate,"FAS, non-responders in previous study",35.7%
same,durable response rate,"FAS, responders in previous study",72.0%
same,subjects who achieved an overall platelet response after the titration,13 subjects who required and did receive a dose titration,76.9%
same,median platelet counts maintained throughout the study,FAS,"above 50,000 /mm^3"
same,"Upward titration required and implemented, % of subjects","FAS, 501-CL-003 Nonresponders",(47.6) %
same,"Upward titration required and implemented, n of subjects","FAS, 501-CL-003 Nonresponders",10/21
same,"Upward titration required and implemented; subject achieved overall response, % of subjects","FAS, 501-CL-003 Nonresponders",(70.0) %
same,"Upward titration required and implemented; subject achieved overall response, n of subjects","FAS, 501-CL-003 Nonresponders",7/10
same,"Upward titration required, % of subjects",[1],(75.0) %
same,"Upward titration required, n of subjects",[1],21
same,"Upward titration required and implemented, % of subjects","FAS, 501-CL-003 Responders",(60.0) %
same,"Upward titration required and implemented, n of subjects","FAS, 501-CL-003 Responders",3/5
same,"Upward titration required and implemented; subject achieved overall response, % of subjects","FAS, 501-CL-003 Responders",(100.0) %
same,"Upward titration required and implemented; subject achieved overall response, n of subjects","FAS, 501-CL-003 Responders",3/3
same,"Upward titration required, % of subjects",[2],(20.0) %
same,"Upward titration required, n of subjects",[2],5
same,"Durable Platelet Response No, %","FAS, E5501 Total (N=53)",(47.2) %
same,"Durable Platelet Response Yes, %","FAS, E5501 Total (N=53)",(52.8) %
same,"Transient Platelet Response Yes, %","FAS, E5501 Total (N=53)",(22.6) %
same,"With Overall Response No, %","FAS, E5501 Total (N=53)",(24.5) %
same,"With Overall Response Yes, %","FAS, E5501 Total (N=53)",(75.5) %
same,"Transient Platelet Response No, %","FAS, E5501 Total (N=53)",(77.4) %
same,"Durable Platelet Response No, %","FAS, Non-Responders (N=28)",(64.3) %
same,"Durable Platelet Response Yes, %","FAS, Non-Responders (N=28)",(35.7) %
same,"Transient Platelet Response Yes, %","FAS, Non-Responders (N=28)",(28.6) %
same,"With Overall Response No, %","FAS, Non-Responders (N=28)",(35.7) %
same,"With Overall Response Yes, %","FAS, Non-Responders (N=28)",(64.3) %
same,"Transient Platelet Response No, %","FAS, Non-Responders (N=28)",(71.4) %
same,"Durable Platelet Response No, %","FAS, Responders (N=25)",(28.0) %
same,"Durable Platelet Response Yes, %","FAS, Responders (N=25)",(72.0) %
same,"Transient Platelet Response Yes, %","FAS, Responders (N=25)",(16.0) %
same,"With Overall Response No, %","FAS, Responders (N=25)",(12.0) %
same,"With Overall Response Yes, %","FAS, Responders (N=25)",(88.0) %
same,"Transient Platelet Response No, %","FAS, Responders (N=25)",(84.0) %
same,"Upward titration required and implemented, % of subjects","FAS, Total",(50.0) %
same,"Upward titration required and implemented, n of subjects","FAS, Total",13/26
same,"Upward titration required and implemented; subject achieved overall response, % of subjects","FAS, Total",(76.9) %
same,"Upward titration required and implemented; subject achieved overall response, n of subjects","FAS, Total",10/13
same,"Upward titration required, % of subjects","FAS, Total (N = 53)",(49.0) %
same,"Upward titration required, n of subjects","FAS, Total (N = 53)",26
same,"Durable Platelet Response, n (%) with response",[3],12 (66.7) n (%)
same,"Overall Platelet Response, n (%) with response",[3],15 (83.3) n (%)
same,"Durable Platelet Response, n (%) with response",[4],3 (50.0) n (%)
same,"Overall Platelet Response, n (%) with response",[4],4 (66.7) n (%)
same,"Durable Platelet Response, n (%) with response",[5],9 (75.0) n (%)
same,"Overall Platelet Response, n (%) with response",[5],11 (91.7) n (%)
same,"Durable Platelet Response, n (%) with response",[6],24 (63.2) n (%)
same,"Overall Platelet Response, n (%) with response",[6],33 (86.8) n (%)
same,"Durable Platelet Response, n (%) with response",[7],9 (47.4) n (%)
same,"Overall Platelet Response, n (%) with response",[7],15 (78.9) n (%)
